Source: patent US20250213523A1, “COMBINATION OF HDAC INHIBITORS AND STATINS FOR USE IN THE TREATMENT OF PANCREATIC CANCER” (ISTITUTO NAZIONALE TUMORI IRCCS - FONDAZIONE G. PASCALE, priority 2022, published 2025)

Tests used:
ASPC1 = assay: Cell proliferation assay (Sulforhodamine B), IC50; format: cell-based; conditions: Homo sapiens; ASPC1, 96 hours of treatment; read-out: IC50 96 h mean ± SD
Procedure: (§1) Cell proliferation was measured in 96-well plates in cells untreated and treated with described drugs as single agent or in combination. […] Drugs combination studies were based on concentration-effect curves generated as a plot of the fraction of unaffected (surviving) cells versus drug concentration after 96 h of treatment. Synergism, additivity, and antagonism were quantified after an evaluation of the Combination Index (CI), which was calculated by the Chou-Talalay equation with CalcuSyn software (Biosoft, Cambridge, UK-Chou T C. Cancer Res. 2010 Jan. 15; 70(2):440-6.), as described elsewhere (Terranova-Barberio M, J Exp Clin Cancer Res. 2017; 36(1):177); Bruzzese et al, J Cell Physiol 2011, 226(9):2378-2390). […] The DRI determined the magnitude of dose reduction allowed for each drug when given in combination, compared with the concentration of a single agent that is needed to achieve the same effect. Clonogenic assay Colony formation assay is an in vitro cell survival assay based on the ability of a single cell to grow into a colony. The PANC1, ASPC1 and PANC28 cell lines were plated in 96 well plates with 50 cell/well while the BxPC3 cell line with 100 cell/well. The day after the cells were treated with VPA, SIM alone (at dose of IC10, IC25 and IC50) and in combination. The cells were grown for 10 days. The formed colonies were fixed with TCA (50%) and measured using a spectrophotometric dye incorporation assay (Sulforhodamine B or crystal violet). Microtissue formation assay Pancreatic cancer cell lines PANC1, ASPC1, PANC28, BxPC3 and MiaPaca were cultured as microtissues by the ultra-low attachment (ULA) System (PerkinElmer). The cancer cells were marked using a green fluorescent probe-cell traker (Thermo Fisher) while fibroblast (only for preliminary experiment to evaluate tissues formation) with red probe (PKH-26 Sigma Aldrich) according to manufacture instruction. […] 3D microtissues were maintained in the incubator and photographed by Opera Phenix microscope (Perkin Elmer) air objective magnification 5× and/or scored by Cell Titer-Glo® 3D Cell Viability Assay (Promega) by using a Multimode Reader Cytation 5 (Biotek).

PANC1 = assay: Cell proliferation assay (Sulforhodamine B), IC50; format: cell-based; conditions: Homo sapiens, PANC-1; PANC1, 96 hours of treatment; read-out: IC50 96 h mean ± SD
Procedure: as §1

BxPC3 = assay: Cell proliferation assay (Sulforhodamine B), IC50; format: cell-based; conditions: Homo sapiens, BXPC-3; BxPC3, 96 hours of treatment; read-out: IC50 96 h mean ± SD
Procedure: as §1, with “The day after the cells were treated with VPA, SIM alone (at dose of IC10, IC25 and IC50) and in combination.” left out

COLO357 = assay: Cell proliferation assay (Sulforhodamine B), IC50; format: cell-based; conditions: Homo sapiens; COLO357, 96 hours of treatment; read-out: IC50 96 h mean ± SD
Procedure: as §1, with “The day after the cells were treated with VPA, SIM alone (at dose of IC10, IC25 and IC50) and in combination.” left out

L3.6pl = assay: Cell proliferation assay (Sulforhodamine B), IC50; format: cell-based; conditions: Homo sapiens, 96 hours of treatment, read-out: IC50 96 h mean ± SD
Procedure: as §1, with “The day after the cells were treated with VPA, SIM alone (at dose of IC10, IC25 and IC50) and in combination.” left out

MDA-PANC28 = assay: Cell proliferation assay (Sulforhodamine B), IC50; format: cell-based; conditions: Homo sapiens, MDA-Panc-28; MDA-PANC28, 96 hours of treatment; read-out: IC50 96 h mean ± SD
Procedure: as §1, with “The day after the cells were treated with VPA, SIM alone (at dose of IC10, IC25 and IC50) and in combination.” left out

MIAPACA = assay: Cell proliferation assay (Sulforhodamine B), IC50; format: cell-based; conditions: Homo sapiens, MIA PaCa-2, 96 hours of treatment, read-out: IC50 96 h mean ± SD
Procedure: as §1, with “The day after the cells were treated with VPA, SIM alone (at dose of IC10, IC25 and IC50) and in combination.” left out

KPC ID11 = assay: Cell proliferation assay (Sulforhodamine B), IC50; format: cell-based, C57/BL6 mice; conditions: Mus musculus; KPC ID11, 96 hours of treatment; read-out: IC50 96 h mean ± SD
Procedure: (§2) FIG. 1. Pancreatic Cancer Cell lines features. A. Basal mRNA basal levels of EMT markers Vimentin and E-Cadherin in PDAC cell lines L3.6pl, BxPC3, COLO357, PANC28, PANC1, ASPC1 and MIAPACA2, in normal pancreatic cells HPDE cells, as well as in 2 established PDX-derived primary cells KPC ID11 and KPC ID95 were determined by qRT-PCR. […] Cells were grown for 48 h before preparation of cell lysates. Proteins were separated by SDS-PAGE and transferred to PVDF membranes using standard protocols. The membranes were probed with specific antibodies and Ponceau Red as total protein loading controls. Data represents representative results of at least three independent experiments.
as §1, with “The day after the cells were treated with VPA, SIM alone (at dose of IC10, IC25 and IC50) and in combination.” left out

KPC ID95 = assay: Cell proliferation assay (Sulforhodamine B), IC50; format: cell-based, C57/BL6 mice; conditions: Mus musculus; KPC ID95, 96 hours of treatment; read-out: IC50 96 h mean ± SD
Procedure: as §2
as §1, with “The day after the cells were treated with VPA, SIM alone (at dose of IC10, IC25 and IC50) and in combination.” left out

[1] = tested on: PANC1, ASPC1, PANC28 and BxPC3 cells; assay: Colony formation (clonogenic) assay; format: cell-based, human; conditions: high (IC25) and low (IC10) doses; all cell lines
Procedure: FIG. 3. VPA plus SIMVASTATIN antiproliferative and pro-apoptotic effects in PDAC cell lines. A. Synergistic inhibition of colony formation by the VPA/SIM in ASPC1, PANC28, PANC1 and BxPC3 cell lines. […] Upper panel: representative imagines of one experiment; in the lower panel: the bar graphs represent the values of absorbance of colonies after SRB colorimetric assay. Statistical significance was determined by a 2 tailed, unpaired Student's T test (*P<0.05;** P<0.01). B.-C. Synergistic inhibition of microtissues formation by the VPA and SIM alone and in combination. […] The graphics represent the number of viable cells in 3D cell culture based on quantitation of the ATP content. […] Statistical significance was determined by a 2 tailed, unpaired Student's T test (*P<0.05;** P<0.01) (C). […] Antiproliferative effect was assessed in all PDAC cell lines by sulforhodamine B colorimetric assay (see Methods) and expressed as percentage of control. B Apoptosis was evaluated by Caspase 3/7 activity assay, in PANC1, PANC28 and ASPC1 cells untreated or treated for 24 h with VPA/SIM and/or GEM/TAX at the low doses (VPA 0.5 mM, SIM 0,625 μM, GEM 25 nM and TAX 1.25 nM) and evaluated by luminescence assay. […] Expression of cleaved PARP in PANC1, PANC28 and ASPC1 cell lines untreated or treated with VPA/SIM and/or GEM/TAX for 24 h was evaluated by western blotting. βActin was used as loading control. […]

| Structure (SMILES) | IC50 (ASPC1) | IC50 (PANC1) | IC50 (BxPC3) | IC50 (COLO357) | IC50 (MDA-PANC28) | IC50 (MIAPACA) | IC50 (L3.6pl) | IC50 (KPC ID11) | IC50 (KPC ID95) | colonies formation [1] |
| --- | --- | --- | --- | --- | --- | --- | --- | --- | --- | --- |
| O=C(CCCCCCC(=O)Nc1ccccc1)NO [VOR, Vorinostat] | 0.74 ± 0.04 µM | 0.82 ± 0.1 µM |  |  |  |  |  |  |  |  |
| Nc1ccccc1NC(=O)c1ccc(CNC(=O)OCc2cccnc2)cc1 [MS-275] | 2.2 ± 0.14 µM | 2.65 ± 0.07 µM | 0.9 ± 0.05 µM | > 8 µM | 2.1 ± 0.14 µM | 0.02 µM | > 8 µM | > 8 µM | > 8 µM |  |
| CCCC(CCC)C(=O)O [VPA, 2-propylpentanoic acid] | 3500 ± 70 µM | 4500 ± 70 µM | 1820 ± 190 µM | 1000 ± 100 µM | 2800 ± 560 µM | 750 ± 50 µM | 2200 ± 120 µM | 1800 ± 40 µM | 1600 ± 380 µM | inhibited colonies formation |
| CCC(C)(C)C(=O)O[C@H]1C[C@@H](C)C=C2C=C[C@H](C)[C@H](CC[C@@H]3C[C@@H](O)CC(=O)O3)[C@H]21 [SIM, Simvastatin] | 1.5 ± 0.28 µM | 9.2 ± 0.9 µM | 11.2 ± 2.59 µM | 6 ± 0.5 µM | 1.3 ± 0.07 µM | 2 ± 0.21 µM | 5.1 ± 0.8 µM | 2.3 ± 0.48 µM | 1.05 ± 0.06 µM |  |

More lines, in order of falling IC50 (ASPC1), values ahead:

| IC50 (ASPC1) | IC50 (PANC1) | IC50 (BxPC3) | IC50 (COLO357) | IC50 (MDA-PANC28) | IC50 (MIAPACA) | Structure (SMILES) | IC50 (L3.6pl) | IC50 (KPC ID11) | IC50 (KPC ID95) | colonies formation [1] |
| --- | --- | --- | --- | --- | --- | --- | --- | --- | --- | --- |
| 8.83 ± 2.4 µM | 28.2 ± 5.9 µM | 18.7 ± 6.95 µM | 8 ± 0.5 µM | 4.05 ± 0.55 µM | 3 ± 0.4 µM | CC[C@H](C)C(=O)O[C@H]1C[C@@H](C)C=C2C=C[C@H](C)[C@H](CC[C@@H]3C[C@@H](O)CC(=O)O3)[C@H]21 [LOV, Lovastatin] | 12.1 ± 0.33 µM |  |  |  |
| 4.55 ± 0.07 µM | 14.4 ± 0.56 µM | 16.9 ± 4.3 µM | 12 ± 2.2 µM | 3.25 ± 0.35 µM | 1.8 ± 0.06 µM | CC(C)c1c(C(=O)Nc2ccccc2)c(-c2ccccc2)c(-c2ccc(F)cc2)n1CC[C@@H](O)C[C@@H](O)CC(=O)O [ATOR, Atorvastatin] | 11 ± 3.2 µM |  |  |  |
| 0.0156 ± 0.00177 µM | 0.0137 ± 0.00275 µM | 0.0243 ± 0.00503 µM | 0.065 ± 0.00703 µM | 0.0224 ± 0.00056 µM | 0.016 ± 0.0014 µM | Cc1[nH]c2ccccc2c1CCNCc1ccc(/C=C/C(=O)NO)cc1 [PAN, 2-(E)-N-hydroxy-3-[4 [[[2-(2-methyl-1H-indol-3-yl)ethyl]amino]methyl]phenyl]-2-propenamide] | > 0.16 µM | > 0.16 µM | > 0.16 µM |  |
